This note sets out measurements from US20040146519A1, “Inducing cellular immune responses to carcinoembryonic antigen using peptide and nucleic acid compositions” (priority 2002, published 2004).

The target of one assay is HLA-DRB1*0301 (DR3) (Homo sapiens, UniProt P01903+P01911, A100K/A102G/A103R/A169T/F55Y/I96L/K41T/L162R/M171V/P40S/Q125H/Q178H/Q39Y/R42S/S66N/T106N/T262R/W38E/Y61H). In words: HLA class II binding assay, DRB1*0301 (DR3). As to conditions: read-out: DR3 binding affinity.
The target in another assay is HLA-A*3301 (Homo sapiens, UniProt P04439, A270S/D185E/E176V/E277Q/E87N/F33T/G231S/H175R/I121M/I218V/I322F/K168Q/K210R/L300P/L318F/M331R/P217A/Q86R/Q94H/R138Q/T323A/T345S/T97I/V358M/Y195H). In words: HLA class I binding assay, purified HLA-A*3301. Conditions: Table XXIII, binding affinity.
The target in another assay is HLA-A*0301 (Homo sapiens, UniProt P04439). As to the kind of experiment: HLA class I binding assay, purified HLA-A*0301. As to conditions: Table XXIII, binding affinity.
The next assay addresses HLA-A*1101 (Homo sapiens, UniProt P04439, A114D/D185E/E176A/F33Y/L180Q/S129P/T187R). In words: HLA class I binding assay, purified HLA-A*1101. Conditions: Table XXIII, binding affinity.
For the next assay, the target named is HLA-A*6801 (Homo sapiens, UniProt P04439, A269V/D185E/E176V/E277Q/E87N/F33Y/G231S/I121M/I166T/I218V/L180W/L300P/L318F/N151K/P208A/P217A/Q86R/R169H/T345S). In words: HLA class I binding assay, purified HLA-A*6801. As to conditions: Table XXIII, binding affinity.
The test system of assay [1] is tumor targets that endogenously express CEA (SW403, HT-20, KATO III). As to the kind of experiment: 51Cr release against tumor targets (endogenous recognition). The class given is cell-based, human. As to conditions: number of donors yielding a positive response/total tested. As to the method:
(§1) The colon adenocarcinoma cell lines SW403 and […], the osteosarcoma line Saos-2 and the breast tumor line BT540 were obtained from the American Type Culture Collection (ATCC) (Rockville, Md.). The gastric cancer line, KATO III was obtained from the Japanese Cancer Research Resources Bank. […] The melanoma, colon and gastric cancer cells were treated with 100 U/ml IFN (Genzyme) for 48 hours at 37° C. before use as targets in the ^51Cr release and in situ IFN assays.
Restimulation of the induction cultures with peptide-pulsed adherent cells: Seven and fourteen days after the primary induction the cells were restimulated with peptide-pulsed adherent cells. […] After expansion, activity was measured in both assays for a side by side comparison.
Seven days after the second restimulation, cytotoxicity was determined in a standard (5 hr) ^51Cr release assay by assaying individual wells at a single E:T. Peptide-pulsed targets were prepared by incubating the cells with 10 μg/ml peptide overnight at 37° C.
Adherent target cells were removed from culture flasks with trypsin-EDTA. […] At that time, 100 μl of supernatant were collected from each well and percent lysis was determined according to the formula: [(cpm of the test sample−cpm of the spontaneous ^51Cr release sample)/(cpm of the maximal ^51Cr release sample-cpm of the spontaneous ^51Cr release sample)]×100. […]

The test system of assay [2] is .221A2.1 cells pulsed with peptide. In words: Primary in vitro CTL induction, 51Cr release against peptide-pulsed targets. The class given is cell-based, human. As to conditions: number of donors yielding a positive response/total tested. As to the method:
as §1
The monocytes were purified by plating 10×10^6 PBMC/well in a 6-well plate. After 2 hours at 37° C., the non-adherent cells were removed by gently shaking the plates and aspirating the supernatants. The wells were washed a total of three times with 3 ml RPMI to remove most of the non-adherent and loosely adherent cells. Three ml of complete medium containing 50 ng/ml of GM-CSF and 1,000 U/ml of IL-4 were then added to each well. […]
Induction of CTL with DC and Peptide: CD8+ T-cells were isolated by positive selection with Dynal immunomagnetic beads (Dynabeads® M-450) and the detacha-bead® reagent. […] The DC were collected and centrifuged at 1300 rpm for 5-7 minutes, washed once with PBS with 1% BSA, counted and pulsed with 40 μg/ml of peptide at a cell concentration of 1-2×10^6/ml in the presence of 3 μg/ml β2-microglobulin for 4 hours at 20° C. The DC were then irradiated (4,200 rads), washed 1 time with medium and counted again. […]

pIC50: −log10 of the molar value.

Chain of HLA-A*1101 (P04439 25-365 limits assumed, stated change not applied): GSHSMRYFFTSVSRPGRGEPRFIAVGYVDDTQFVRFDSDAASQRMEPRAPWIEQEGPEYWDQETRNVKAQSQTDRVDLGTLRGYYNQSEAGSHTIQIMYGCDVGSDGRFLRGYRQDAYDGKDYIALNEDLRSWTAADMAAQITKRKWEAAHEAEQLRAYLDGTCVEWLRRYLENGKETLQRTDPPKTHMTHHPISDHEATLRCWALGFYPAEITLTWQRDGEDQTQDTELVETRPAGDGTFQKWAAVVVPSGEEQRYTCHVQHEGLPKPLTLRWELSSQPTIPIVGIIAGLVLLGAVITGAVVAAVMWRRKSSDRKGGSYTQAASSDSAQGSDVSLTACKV
Chain of HLA-DRB1*0301 (DR3) (P01903 26-254 limits assumed, other chains not shown): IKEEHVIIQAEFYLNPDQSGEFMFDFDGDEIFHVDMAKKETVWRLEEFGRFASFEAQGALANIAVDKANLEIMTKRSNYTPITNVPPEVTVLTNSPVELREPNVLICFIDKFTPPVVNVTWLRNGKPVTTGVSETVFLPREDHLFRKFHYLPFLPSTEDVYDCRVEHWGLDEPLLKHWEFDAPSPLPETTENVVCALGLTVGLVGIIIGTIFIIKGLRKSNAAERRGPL
Experimental for HLA-DRB1*0301 (DR3): Conversely, The DR supertype cross-reactive binding peptides were also tested for DR3 binding capacity.

As for `CC[C@H](C)[C@H](NC(=O)[C@@H](NC(=O)[C@H](Cc1c[nH]cn1)NC(=O)[C@@H](N)CC(C)C)C(C)C)C(=O)N[C@@H](CCCCN)C(=O)N[C@@H](CO)C(=O)N[C@@H](CC(=O)O)C(=O)N[C@@H](CC(C)C)C(=O)N[C@H](C(=O)N[C@@H](CC(N)=O)C(=O)N[C@@H](CCC(=O)O)C(=O)N[C@@H](CCC(=O)O)C(=O)N[C@@H](C)C(=O)N[C@H](C(=O)NCC(=O)O)[C@@H](C)O)C(C)C` [CEA.122], the pIC50 at HLA-DRB1*0301 (DR3) is 5.64.

Take `CC(C)[C@H](NC(=O)[C@@H](N)[C@@H](C)O)C(=O)N[C@@H](CO)C(=O)N1CCC[C@H]1C(=O)N[C@@H](CO)C(=O)N[C@@H](Cc1ccc(O)cc1)C(=O)N[C@H](C(=O)N[C@@H](Cc1ccc(O)cc1)C(=O)N[C@@H](Cc1ccc(O)cc1)C(=O)N[C@@H](CCCNC(=N)N)C(=O)O)[C@@H](C)O` [CEA.419.V2]: the pIC50 is 6.58 on HLA-A*3301, 5.63 on HLA-A*0301, 5.52 on HLA-A*1101 and 8.07 at HLA-A*6801.

Turning to `CC(C)C[C@H](NC(=O)[C@H](CC(N)=O)NC(=O)[C@H](CC(C)C)NC(=O)[C@H](CC(N)=O)NC(=O)[C@H](C)NC(=O)CNC(=O)[C@H](CO)NC(=O)[C@H](CC(C)C)NC(=O)[C@@H](N)Cc1ccc(O)cc1)C(=O)O` [compound 605], the “CTL Tumor” value in assay [1] (Table XXVIIa) and in assay [1] (Table XXVIIb) was 1/2 throughout. The “CTL Wildtype” value in assay [2] (Table XXVIIa) is reported as 2/2. For the same compound, in assay [2] (Table XXVIIb), the “CTL Wild-type” value was 2/2.
